Columns and labels:
Format in all cases: in vivo
[1] = system: Swiss-Webster male mice or Sprague-Dawley male rats; experiment: Charcoal motility (intestinal transit of a charcoal suspension); settings: oral dose 4 mg/kg, 30 minutes before charcoal; sacrificed 30 minutes after charcoal; species (mice or rats) not given
Experimental: A charcoal suspension (10 cm /kg of a 10% suspension of activated charcoal, U.S.P. in 0.5% methylcellulose) is given orally either to groups of 10 Swiss-Webster male mice (18-22 g, Taconic Farms) or groups of 5 Sprague-Dawley male rats (120-140 g, Charles River Breeding Labs., Inc.) 30 minutes after an oral dose of drug or control. The animals are sacrificied 30 minutes after receiving the charcoal and the intestines are carefully removed without stretching and placed lengthwise on moist paper. The length of the intestine (pyloric sphincter to caecum) and the distance travelled by the charcoal as a fraction of that length are evaluated for each animal and group means are compared and expressed as percentage inhibition; [formula] For estimation of the duration of inhibition, the interval between dosing with drug and the administration of charcoal is varied from 30 minutes to 6 hours.

[2] = system: Male Sprague-Dawley rats; experiment: Gastric emptying test (Amberlite pellet retention in the stomach); settings: Rattus norvegicus, 30 minutes before 30 pellets, pellets counted four hours later; for inhibition at 10 mg/kg: oral dose 10 mg/kg; for inhibition at 0.25 mg/kg: oral dose 0.25 mg/kg; for inhibition at 0.5 mg/kg: oral dose 0.5 mg/kg
Experimental: The gastric emptying test is performed essentially as described by Brodie in Gastroenterology 50, 45-50 (1966). Male Sprague-Dawley rats (groups of five) are dosed orally with the test compounds or controls 30 minutes before the oral administration of 30 Amerlite pellets (Rohm & Haas Amberlite IRA-93, 1 mm diameter) suspended in 1 cm3 distilled water. The animals are killed with pentobarbital four hours after the pellets are given; the stomachs are removed and the number of pellets remaining in the stomach counted. The control group is compared to the drug treated group using the following formula: %retention = [(mean drug- treated) - (mean control) / 30-(mean control)] X 100.

[3] = system: poultry; experiment: Feed efficiency studies on poultry under strict laboratory conditions; settings: disease and parasite-free environment, relative to control animals
Excerpt: Studies on poultry conducted under strict laboratory conditions, that is, in a disease and parasitt -free environment, indicate that the administration of feed efficiency agents, such as the amidinoureas defined in formulae I-VI and in particular 1-(2,6-dimethylphenyl)-3-methylamidinourea, results in an increase in the feed conversion ratio and weight gain of the treated animal relative to that of the control animals. The % improvement in the feed conversion ratio in the treated animals as compared with the controls is expressed by: • Body Weight Gain of Body Weight Gain of [formula]

Question: For `CCCNC(=N)NC(=O)Nc1c(C)cc(C)cc1C` [R'=CH3, R"=CH3, Rm=4-CH3, R6=H, R1=n-Pr], which inhibition at 4 mg/kg [1] is on record?
Answer: Its inhibition at 4 mg/kg is 15%.

Question: `Cc1cc(Cl)ccc1NC(=O)NC(=N)N` [R'=CH3, R"=H, Rm=4-Cl, R6=H, R1=H] was tested. Which inhibition at 10 mg/kg [2] did it give?
Answer: The inhibition at 10 mg/kg was 28%.

Question: Which inhibition at 40 mg/kg ([2]; oral dose 40 mg/kg) does the source give for `N=C(N)NC(=O)Nc1c(Cl)cc(Br)cc1Cl` [R'=Cl, R"=Cl, Rm=4Br, R6=H, R1=H] here?
Answer: The inhibition at 40 mg/kg was 54%.

Question: Which inhibition at 0.25 mg/kg [2] does the source give for `N=C(N)NC(=O)Nc1c(F)cccc1Cl` [R'=Cl, R"=F, Rm=H, R6=H, R1=H] here?
Answer: The inhibition at 0.25 mg/kg was 60%.

Question: For `CNC(=N)NC(=O)Nc1c(C)cccc1C` [1-(2,6-dimethylphenyl)-3-methylamidinourea], which feed conversion ratio [3] is on record?
Answer: The feed conversion ratio was “increase”.

Question: And the weight gain [3]?
Answer: The weight gain was “increase”.

Question: Which inhibition at 2.5 mg/kg ([2]; oral dose 2.5 mg/kg) does the source give for `CCc1cccc(CC)c1NC(=O)NC(=N)N` [R'=ET, R"=ET, Rm=H, R6=H, R1=H] here?
Answer: The inhibition at 2.5 mg/kg was 83%.

Question: Which inhibition at 10 mg/kg [2] does the source give for `Cc1ccccc1NC(=O)NC(=N)N` [R'=CH3, R"=H, Rm=H, R6=H, R1=H] here?
Answer: The inhibition at 10 mg/kg was 54%.

Question: With `Cc1cccc(Cl)c1N(C)C(=O)NC(=N)N` [R'=Cl, R"=CH3, Rm=H, R6=CH3, R1=H] as the compound, how does the inhibition at 4 mg/kg [1] read?
Answer: The inhibition at 4 mg/kg was 82%.

Question: For `Cc1ccc(NC(=O)NC(=N)N)c(Cl)c1` [R'=Cl, R"=H, Rm=4-CH3, R6=H, R1=H], which inhibition at 10 mg/kg [2] is on record?
Answer: Its inhibition at 10 mg/kg is 40%.

Question: With `N=C(N)NC(=O)Nc1ccc(Cl)cc1Cl` [R'=Cl, R"=H, Rm=4-Cl, R6=H, R1=H] as the compound, how does the inhibition at 10 mg/kg [2] read?
Answer: Its inhibition at 10 mg/kg is 85%.

Question: For `CNC(=N)NC(=O)Nc1ccccc1C` [R'=CH3, R"=H, Rm=H, R6=H, R1=CH3], which inhibition at 4 mg/kg [1] is on record?
Answer: The inhibition at 4 mg/kg was 11%.

Question: Which inhibition at 0.25 mg/kg [2] does the source give for `Cc1cccc(C)c1NC(=O)NC(=N)N` [R'=CH3, R"=CH3, Rm=H, R6=H, R1=H] here?
Answer: Its inhibition at 0.25 mg/kg is 55%.

Question: `N=C(N)NC(=O)Nc1c(Br)cccc1Br` [R'=Br, R"=Br, Rm=H, R6=H, R1=H] was tested. Which inhibition at 4 mg/kg [1] did it give?
Answer: The inhibition at 4 mg/kg was 91%.

Question: How did the inhibition at 10 mg/kg [2] turn out when `N=C(N)NC(=O)Nc1ccc([N+](=O)[O-])cc1` [R'=H, R"=H, Rm=4NO2, R6=H, R1=H] was run?
Answer: Its inhibition at 10 mg/kg is 59%.

Question: Which inhibition at 4 mg/kg [1] does the source give for `Cc1cccc(Br)c1NC(=O)NC(=N)N` [R'=Br, R"=CH3, Rm=H, R6=H, R1=H] here?
Answer: Its inhibition at 4 mg/kg is 89%.

Question: `CCc1cccc(CC)c1N(C)C(=O)NC(=N)N` [R'=ET, R"=ET, Rm=H, R6=CH3, R1=H] was tested. Which inhibition at 4 mg/kg [1] did it give?
Answer: The inhibition at 4 mg/kg was 12%.

Question: With `N=C(N)NC(=O)Nc1ccc(Cl)c(Cl)c1` [R'=H, R"=H, Rm=3-Cl 4-Cl, R6=H, R1=H] as the compound, how does the inhibition at 10 mg/kg [2] read?
Answer: The inhibition at 10 mg/kg was 74%.

Question: `N=C(N)NC(=O)Nc1c(Cl)cccc1Cl` [R'=Cl, R"=Cl, Rm=H, R6=H, R1=H] was tested. Which inhibition at 0.125 mg/kg ([2]; oral dose 0.125 mg/kg) did it give?
Answer: The inhibition at 0.125 mg/kg was 54%.

Question: With `COc1cccc(C)c1NC(=O)NC(=N)N` [R'=OCH3, R"=CH3, Rm=H, R6=H, R1=H] as the compound, how does the inhibition at 0.5 mg/kg [2] read?
Answer: Its inhibition at 0.5 mg/kg is 70%.

Question: Which inhibition at 4 mg/kg [1] does the source give for `CNC(=N)NC(=O)Nc1c(C)ccc(Br)c1C` [R'=CH3, R"=CH3, Rm=3Br, R6=H, R1=CH3] here?
Answer: The inhibition at 4 mg/kg was 22%.

Question: How did the inhibition at 4 mg/kg [1] turn out when `CCCCN(C(=O)NC(=N)N)c1c(C)cccc1C` [R'=CH3, R"=CH3, Rm=H, R6=n-Bu, R1=H] was run?
Answer: The inhibition at 4 mg/kg was 72%.

Question: Which inhibition at 0.25 mg/kg [2] does the source give for `Cc1cccc(Cl)c1NC(=O)NC(=N)N` [R'=Cl, R"=CH3, Rm=H, R6=H, R1=H] here?
Answer: Its inhibition at 0.25 mg/kg is 43%.

Question: For `Cc1cccc([N+](=O)[O-])c1NC(=O)NC(=N)N` [R'=CH3, R"=NO2, Rm=H, R6=H, R1=H], which inhibition at 4 mg/kg [1] is on record?
Answer: Its inhibition at 4 mg/kg is 82%.

Question: For `CCc1cccc(C)c1NC(=O)NC(=N)N` [R'=ET, R"=CH3, Rm=H, R6=H, R1=H], which inhibition at 0.5 mg/kg [2] is on record?
Answer: Its inhibition at 0.5 mg/kg is 30%.

Question: With `CCNC(=N)NC(=O)Nc1ccc(N)cc1` [R'=H, R"=H, Rm=4-NH2, R6=H, R1=ET] as the compound, how does the inhibition at 4 mg/kg [1] read?
Answer: Its inhibition at 4 mg/kg is 20%.

Question: For `Cc1cccc(C)c1N(C)C(=O)NC(=N)N` [R'=CH3, R"=CH3, Rm=H, R6=CH3, R1=H], which inhibition at 2 mg/kg ([2]; oral dose 2 mg/kg) is on record?
Answer: Its inhibition at 2 mg/kg is 55%.

Question: Which inhibition at 10 mg/kg [2] does the source give for `Cc1cc(C)c(NC(=O)NC(=N)N)c(C)c1` [R'=CH3, R"=CH3, Rm=4-CH3, R6=H, R1=H] here?
Answer: Its inhibition at 10 mg/kg is 45%.
